Test results published in patent US20210198256A1, “COMPOUNDS FOR THE DEGRADATION OF BRD9 OR MTH1” (C4 Therapeutics, Inc., priority 2018, published 2021).

Test system: SMARTCAR-MTH1-wt-HiBiT (Jurkat.7 cells)
Assay: HiBit Lytic Assay (HiBit DC50, MTH1 degraders of Table 2)
Type: cell-based, human
Conditions: Jurkat.7 SMARTCAR-MTH1-wt-HiBiT cells, compound treatment time 4 hr, 11-point half log dose response
How it was run: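 Jurkat.7 cells expressing SMARTCAR-MTH1-wt-HiBiT were treated at 37° C with 11-point half-log dilutions (top final 1000 nM or 833 nM, duplicates, 0.1% DMSO). Remaining HiBiT-tagged protein was read by Nano-Glo HiBiT lytic luminescence, normalized to media-only and DMSO controls.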

| DC50 [nM] | Compound |
| --- | --- |
| < 100 | CNC(=O)c1cnc2ccc(NCCCCCCCCCCNC(=O)CNc3cccc4c3CN(C3CCC(=O)NC3=O)C4=O)cc2c1Nc1ccccc1 (stereo not shown) [Compound 441, 6-((10-(2-((2-(2,6-dioxopiperidin-3-yl)-1-oxoisoindolin-4-yl)amino)acetamido)decyl)amino)-N-methyl-4-(phenylamino)quinoline-3-carboxamide] |
| < 100 | CNC(=O)c1cnc2ccc(NCCCCCCCCCCNC(=O)C(C)Oc3cccc4c3C(=O)N(C3CCC(=O)NC3=O)C4=O)cc2c1Nc1ccccc1 (stereo not shown) [Compound 442, 6-((10-(2-((2-(2,6-dioxopiperidin-3-yl)-1,3-dioxoisoindolin-4-yl)oxy)propanamido)decyl)amino)-N-methyl-4-(phenylamino)quinoline-3-carboxamide] |
| < 100 | CNC(=O)c1cnc2ccc(NCCCCCCCCCCNC(=O)[C@@H](C)Nc3cccc4c3C(=O)N(C3CCC(=O)NC3=O)C4=O)cc2c1Nc1ccccc1 (stereo partly drawn) [Compound 443, 6-((10-((2R)-2-((2-(2,6-dioxopiperidin-3-yl)-1,3-dioxoisoindolin-4-yl)amino)propanamido)decyl)amino)-N-methyl-4-(phenylamino)quinoline-3-carboxamide] |
| < 100 | CNC(=O)c1cnc2ccc(NCCCCCCCCCCNC(=O)C(C)Nc3cccc4c3C(=O)N(C3CCC(=O)NC3=O)C4=O)cc2c1Nc1ccccc1 (stereo not shown) [Compound 444, 6-((10-(2-((2-(2,6-dioxopiperidin-3-yl)-1,3-dioxoisoindolin-4-yl)amino)propanamido)decyl)amino)-N-methyl-4-(phenylamino)quinoline-3-carboxamide] |
| < 100 | CNC(=O)c1cnc2ccc(NCCCCCCCCCCNC(=O)[C@H](C)Nc3cccc4c3C(=O)N(C3CCC(=O)NC3=O)C4=O)cc2c1Nc1ccccc1 (stereo partly drawn) [Compound 445, 6-((10-((2S)-2((2-(2,6-dioxopiperidin-3-yl)-1,3-dioxoisoindolin-4-yl)amino)propanamido)decyl)amino)-N-methyl-4-(phenylamino)quinoline-3-carboxamide] |
| < 100 | CNC(=O)c1cnc2ccc(C(=O)NCCCCCCCCCNC(=O)COc3cccc4c3C(=O)N(C3CCC(=O)NC3=O)C4=O)cc2c1Nc1ccccc1 (stereo not shown) [Compound 446, N6-(9-(2-((2-(2,6-dioxopiperidin-3-yl)-1,3-dioxoisoindolin-4-yl)oxy)acetamido)nonyl)-N3-methyl-4-(phenylamino)quinoline-3,6-dicarboxamide] |
| < 100 | CNC(=O)c1cnc2ccc(NCCCCCCCCCCNC(=O)CN(C)c3cccc4c3C(=O)N(C3CCC(=O)NC3=O)C4=O)cc2c1Nc1ccccc1 (stereo not shown) [Compound 447, 6-((10-(2-((2-(2,6-dioxopiperidin-3-yl)-1,3-dioxoisoindolin-4-yl)(methyl)amino)acetamido)decyl)amino)-N-methyl-4-(phenylamino)quinoline-3-carboxamide] |
| < 100 | CNC(=O)c1cnc2ccc(NCCCCCCCCCCNC(=O)COc3cccc4c3C(=O)N(C3CCC(=O)NC3=O)C4=O)cc2c1NCc1ccccc1 (stereo not shown) [Compound 448, 4-(benzylamino)-6-((10-(2-((2-(2,6-dioxopiperidin-3-yl)-1,3-dioxoisoindolin-4-yl)oxy)acetamido)decyl)amino)-N-methylquinoline-3-carboxamide] |
| < 100 | CNC(=O)c1cnc2ccc(NCCCCCCCCCCNC(=O)COc3cccc4c3C(=O)N(C3CCC(=O)NC3=O)C4=O)cc2c1Nc1ccccc1 (stereo not shown) [Compound 449, 6-((10-(2-((2-(2,6-dioxopiperidin-3-yl)-1,3-dioxoisoindolin-4-yl)oxy)acetamido)decyl)amino)-N-methyl-4-(phenylamino)quinoline-3-carboxamide] |
| < 100 | CNC(=O)c1cnc2ccc(C(=O)NCCCCCCCCCCNC(=O)COc3cccc4c3C(=O)N(C3CCC(=O)NC3=O)C4=O)cc2c1Nc1ccccc1 (stereo not shown) [Compound 450, N6-(10-(2-((2-(2,6-dioxopiperidin-3-yl)-1,3-dioxoisoindolin-4-yl)oxy)acetamido)decyl)-N3-methyl-4-(phenylamino)quinoline-3,6-dicarboxamide] |
| < 100 | CNC(=O)c1cnc2ccc(NCCCCCCCCCCNC(=O)CNc3cccc4c3C(=O)N(C3CCC(=O)NC3=O)C4=O)cc2c1Nc1ccccc1 (stereo not shown) [Compound 451, 6-((10-(2-((2-(2,6-dioxopiperidin-3-yl)-1,3-dioxoisoindolin-4-yl)amino)acetamido)decyl)amino)-N-methyl-4-(phenylamino)quinoline-3-carboxamide] |
| < 100 | CCNC(=O)c1cnc2ccc(NCCCCCCCCCCNC(=O)COc3cccc4c3C(=O)N(C3CCC(=O)NC3=O)C4=O)cc2c1Nc1ccccc1 (stereo not shown) [Compound 452, 6-((10-(2-((2-(2,6-dioxopiperidin-3-yl)-1,3-dioxoisoindolin-4-yl)oxy)acetamido)decyl)amino)-N-ethyl-4-(phenylamino)quinoline-3-carboxamide] |
| < 100 | CNC(=O)c1cnc2ccc(C(=O)NCCCCCCCCNC(=O)COc3cccc4c3C(=O)N(C3CCC(=O)NC3=O)C4=O)cc2c1Nc1ccccc1 (stereo not shown) [Compound 453, N6-(8-(2-((2-(2,6-dioxopiperidin-3-yl)-1,3-dioxoisoindolin-4-yl)oxy)acetamido)octyl)-N3-methyl-4-(phenylamino)quinoline-3,6-dicarboxamide] |
| < 100 | CNC(=O)c1cnc2cc(OC)c(NCCCCCCCCCCNC(=O)COc3cccc4c3C(=O)N(C3CCC(=O)NC3=O)C4=O)cc2c1Nc1ccccc1 (stereo not shown) [Compound 454, 6-((10-(2-((2-(2,6-dioxopiperidin-3-yl)-1,3-dioxoisoindolin-4-yl)oxy)acetamido)decyl)amino)-7-methoxy-N-methyl-4-(phenylamino)quinoline-3-carboxamide] |
| < 100 | CNC(=O)c1cnc2ccc(C(=O)NCCCCCCCCCCCCNC(=O)COc3cccc4c3C(=O)N(C3CCC(=O)NC3=O)C4=O)cc2c1Nc1ccccc1 (stereo not shown) [Compound 455, N6-(12-(2-((2-(2,6-dioxopiperidin-3-yl)-1,3-dioxoisoindolin-4-yl)oxy)acetamido)dodecyl)-N3-methyl-4-(phenylamino)quinoline-3,6-dicarboxamide] |
| < 100 | CNC(=O)c1cnc2ccc(CNC(=O)CCCCCCCCNC(=O)COc3cccc4c3C(=O)N(C3CCC(=O)NC3=O)C4=O)cc2c1Nc1ccccc1 (stereo not shown) [Compound 456, 6-((9-(2-((2-(2,6-dioxopiperidin-3-yl)-1,3-dioxoisoindolin-4-yl)oxy)acetamido)nonanamido)methyl)-N-methyl-4-(phenylamino)quinoline-3-carboxamide] |
| < 100 | CC(C)NC(=O)c1cnc2ccc(NCCCCCCCCCCNC(=O)COc3cccc4c3C(=O)N(C3CCC(=O)NC3=O)C4=O)cc2c1Nc1ccccc1 (stereo not shown) [Compound 457, 6-((10-(2-((2-(2,6-dioxopiperidin-3-yl)-1,3-dioxoisoindolin-4-yl)oxy)acetamido)decyl)amino)-N-isopropyl-4-(phenylamino)quinoline-3-carboxamide] |
| < 100 | CNC(=O)c1cnc2ccc(C(=O)NCCCCCCNC(=O)COc3cccc4c3C(=O)N(C3CCC(=O)NC3=O)C4=O)cc2c1Nc1ccccc1 (stereo not shown) [Compound 458, N6-(6-(2-((2-(2,6-dioxopiperidin-3-yl)-1,3-dioxoisoindolin-4-yl)oxy)acetamido)hexyl)-N3-methyl-4-(phenylamino)quinoline-3,6-dicarboxamide] |
| < 100 | CNC(=O)c1cnc2ccc(CC(=O)NCCCCCCCCNC(=O)COc3cccc4c3C(=O)N(C3CCC(=O)NC3=O)C4=O)cc2c1Nc1ccccc1 (stereo not shown) [Compound 459, 6-(2-((8-(2-((2-(2,6-dioxopiperidin-3-yl)-1,3-dioxoisoindolin-4-yl)oxy)acetamido)octyl)amino)-2-oxoethyl)-N-methyl-4-(phenylamino)quinoline-3-carboxamide] |
| < 100 | NC(=O)c1cnc2ccc(NCCCCCCCCCCNC(=O)CNc3cccc4c3C(=O)N(C3CCC(=O)NC3=O)C4=O)cc2c1Nc1ccccc1 (stereo not shown) [Compound 464, 6-((10-(2-((2-(2,6-dioxopiperidin-3-yl)-1,3-dioxoisoindolin-4-yl)amino)acetamido)decyl)amino)-4-(phenylamino)quinoline-3-carboxamide] |
| < 100 | NC(=O)c1cnc2ccc(NCCCCCCCCCCNC(=O)COc3cccc4c3C(=O)N(C3CCC(=O)NC3=O)C4=O)cc2c1Nc1ccccc1 (stereo not shown) [Compound 465, 6-((10-(2-((2-(2,6-dioxopiperidin-3-yl)-1,3-dioxoisoindolin-4-yl)oxy)acetamido)decyl)amino)-4-(phenylamino)quinoline-3-carboxamide] |
| < 100 | NC(=O)c1cnc2ccc(NCCCCCCCCNC(=O)COc3cccc4c3C(=O)N(C3CCC(=O)NC3=O)C4=O)cc2c1Nc1ccccc1 (stereo not shown) [Compound 466, 6-((8-(2-((2-(2,6-dioxopiperidin-3-yl)-1,3-dioxoisoindolin-4-yl)oxy)acetamido)octyl)amino)-4-(phenylamino)quinoline-3-carboxamide] |
| < 100 | NC(=O)c1cnc2ccc(NC(=O)CCCCCCCCCNC(=O)COc3cccc4c3C(=O)N(C3CCC(=O)NC3=O)C4=O)cc2c1Nc1ccccc1 (stereo not shown) [Compound 467, 6-(10-(2-((2-(2,6-dioxopiperidin-3-yl)-1,3-dioxoisoindolin-4-yl)oxy)acetamido)decanamido)-4-(phenylamino)quinoline-3-carboxamide] |
| < 100 | CNC(=O)c1cnc2ccc(-c3ccc(C(=O)NCCCCNC(=O)CN(C)c4cccc5c4C(=O)N(C4CCC(=O)NC4=O)C5=O)cc3)cc2c1Nc1ccccc1 (stereo not shown) [Compound 471, 6-(4-((4-(2-((2-(2,6-dioxopiperidin-3-yl)-1,3-dioxoisoindolin-4-yl)(methyl)amino)acetamido)butyl)carbamoyl)phenyl)-N-methyl-4-(phenylamino)quinoline-3-carboxamide] |
| < 100 | CNC(=O)c1cnc2ccc(-c3ccc(C(=O)NCCCNC(=O)CNc4cccc5c4C(=O)N(C4CCC(=O)NC4=O)C5=O)cc3)cc2c1Nc1ccccc1 (stereo not shown) [Compound 472, 6-(4-((3-(2-((2-(2,6-dioxopiperidin-3-yl)-1,3-dioxoisoindolin-4-yl)amino)acetamido)propyl)carbamoyl)phenyl)-N-methyl-4-(phenylamino)quinoline-3-carboxamide] |
